Common to all, as to assay type: biochemical
For one assay, the target named is T1, Klenow (Escherichia coli, UniProt P00582).
T1 construct: Klenow
Nature of the assay: Chain elongation: addition of modified nucleotide to primer by polymerase (gel autoradiography). The arrangement: key: +: slow addition of modified nucleotide to the primer; ++: good addition of modified nucleotide to the primer; -: no addition of modified nucleotide to the primer. Particulars: Klenow 1.5 units; modified nucleotide 100 µM; dATP, dGTP, dCTP 0.5 µM each; 37°C. As for the experimental part:
(§1) The triposphates of the modified nucleotides are synthesized as described by Kovács & Ötvös (Tetrahedron Lett. (1988), 29, […]) • 5' P^32-[…]-OH SEQ ID NO:1 • 3' HO-[…]-OH SEQ ID NP:2
(§2) A solution of template (3.0 pmol of SEQ ID NO:2) and radioactive primer (0.8 pmol of SEQ ID NO:1) in 72 µl buffer (20 mM Tris-HCl, pH 7.5; 6 mM MgCl2; 40 mM KCl; 0.5 mM DTT) are heated to 80°C and allowed to cool down to 25°C within one hour. To this solution polymerase (see table 1) is added. Aliquots of thereof are mixed with 4 µl of a solution comprising dATP, dGTP, dCTP and the modified nucleotide (see table 1), resulting in a final concentration of dATP, dGTP and dCTP as provided in table 1 and a final concentration of the modified nucleotide of 100 µM. The solutions are incubated at 37°C and the elongation reaction is stopped by addition of 5 µl of a solution of formamide comprising 5 mM EDTA (pH 8.0).
(§3) 3-5 µl of these solutions are subjected to a polyacrylamide gel (19 % acrylamide, 7 M urea). After electrophoresis the gel is transferred to a filter paper, dried and analyzed using autoradiography (see table 2).

In the next assay the target is T7 sequenase version 2 (Escherichia phage T7, UniProt P00581, DEL118-145). The assay is described as above. Set-up: key: +: slow addition of modified nucleotide to the primer; ++: good addition of modified nucleotide to the primer; -: no addition of modified nucleotide to the primer. To be noted: T7 sequenase version 2 0.13 units; modified nucleotide 100 µM; dATP, dGTP, dCTP 2.5 µM each; 37°C. As for the experimental part: as §1, §2, §3
Chain of T7 sequenase version 2 (P00581 other isoform, or with tags, fused parts or gaps DEL118-145): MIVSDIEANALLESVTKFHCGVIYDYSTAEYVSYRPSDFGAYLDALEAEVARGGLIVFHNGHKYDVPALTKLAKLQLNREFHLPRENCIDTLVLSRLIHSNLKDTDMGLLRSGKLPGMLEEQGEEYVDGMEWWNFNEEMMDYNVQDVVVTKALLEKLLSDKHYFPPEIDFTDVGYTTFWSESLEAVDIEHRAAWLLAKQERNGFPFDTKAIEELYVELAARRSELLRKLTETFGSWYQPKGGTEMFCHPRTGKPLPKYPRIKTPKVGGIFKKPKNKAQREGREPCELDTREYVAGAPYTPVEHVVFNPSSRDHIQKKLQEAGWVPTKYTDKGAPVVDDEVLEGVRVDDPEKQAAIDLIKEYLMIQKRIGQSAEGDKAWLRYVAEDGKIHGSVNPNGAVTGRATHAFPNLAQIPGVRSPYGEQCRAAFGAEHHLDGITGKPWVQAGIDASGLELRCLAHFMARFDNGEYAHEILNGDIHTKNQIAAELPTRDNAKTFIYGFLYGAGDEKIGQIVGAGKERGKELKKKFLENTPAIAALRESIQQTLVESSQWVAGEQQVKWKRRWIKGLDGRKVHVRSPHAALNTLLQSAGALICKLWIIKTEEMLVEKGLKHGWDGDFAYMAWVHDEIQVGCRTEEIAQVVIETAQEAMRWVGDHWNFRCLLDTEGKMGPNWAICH
Chain of T7 sequenase version 2 (P0AA25 2-109, stated change not applied, further chain): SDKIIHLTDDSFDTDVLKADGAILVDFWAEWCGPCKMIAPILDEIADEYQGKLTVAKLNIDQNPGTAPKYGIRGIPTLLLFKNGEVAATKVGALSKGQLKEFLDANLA

In a further assay the test system is AMV RT. Nature of the assay: Chain elongation: addition of modified nucleotide to primer by reverse transcriptase (gel autoradiography). The arrangement: key: +: slow addition of modified nucleotide to the primer; ++: good addition of modified nucleotide to the primer; -: no addition of modified nucleotide to the primer. To be noted: AMV RT 2.0 units; modified nucleotide 100 µM; dATP, dGTP, dCTP 0.5 µM each; 37°C. The protocol:
as §1, §2, §3

A further assay concerns the target T2, M-MuLV RT (Moloney murine leukemia virus, UniProt P03355).
T2 construct: M-MuLV RT
Described as above. The arrangement: key: +: slow addition of modified nucleotide to the primer; ++: good addition of modified nucleotide to the primer; -: no addition of modified nucleotide to the primer. To be noted: M-MuLV RT 9 units; modified nucleotide 100 µM; dATP, dGTP, dCTP 15.0 µM each; 37°C. As for the experimental part: as §1, §2, §3

For a further assay, the target named is T3, HIV-1RT (Human immunodeficiency virus type 1 group M subtype B, UniProt P04585).
T3 construct: HIV-1RT
The description is as above. To be noted: HIV-1RT 0.13 units; modified nucleotide 100 µM; dATP, dGTP, dCTP 1.0 µM each; 37°C. Set-up: key to addition of modified nucleotide to the primer: +: slow addition of modified nucleotide to the primer; ++: good addition of modified nucleotide to the primer; -: no addition of modified nucleotide to the primer. As for the experimental part:
as §1, §2, §3

T1 sequence (P00582 324-928): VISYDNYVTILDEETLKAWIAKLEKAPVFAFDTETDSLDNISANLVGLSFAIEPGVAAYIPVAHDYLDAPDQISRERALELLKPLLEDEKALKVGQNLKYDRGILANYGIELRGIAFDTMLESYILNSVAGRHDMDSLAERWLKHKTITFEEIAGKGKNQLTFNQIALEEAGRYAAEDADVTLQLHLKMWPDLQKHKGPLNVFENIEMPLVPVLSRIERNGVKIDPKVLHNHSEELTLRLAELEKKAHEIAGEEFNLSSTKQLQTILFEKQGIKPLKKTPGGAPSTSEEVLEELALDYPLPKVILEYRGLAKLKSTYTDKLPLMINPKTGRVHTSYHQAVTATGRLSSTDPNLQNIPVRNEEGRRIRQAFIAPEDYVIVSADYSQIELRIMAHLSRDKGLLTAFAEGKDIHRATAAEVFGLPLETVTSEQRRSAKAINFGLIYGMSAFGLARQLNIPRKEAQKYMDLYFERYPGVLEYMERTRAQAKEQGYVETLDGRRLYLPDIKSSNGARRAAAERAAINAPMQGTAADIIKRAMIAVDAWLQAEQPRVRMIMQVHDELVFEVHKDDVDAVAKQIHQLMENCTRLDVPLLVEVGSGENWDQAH

With `Cc1cn([C@H]2C[C@H](O)[C@](COP(=O)(O)OP(=O)(O)OP(=O)(O)O)(C(=O)c3ccccc3)O2)c(=O)[nH]c1=O` [R^1=C6H5], the “addition of modified nucleotide to the primer” value (“addition … to the primer” for short) is on record as “-” at Klenow; “-” on T7 sequenase version 2; “++” in the assay on AMV RT; “-” at M-MuLV RT; “++” on HIV-1RT.
`CCC(=O)[C@]1(COP(=O)(O)OP(=O)(O)OP(=O)(O)O)O[C@@H](n2cc(C)c(=O)[nH]c2=O)C[C@@H]1O` [R^1=CH3CH2]: the “addition … to the primer” value is given as “+” at Klenow; “++” at T7 sequenase version 2; “++” in the assay on AMV RT; “++” at M-MuLV RT; “++” at HIV-1RT.
Turning to `CC(=O)[C@]1(COP(=O)(O)OP(=O)(O)OP(=O)(O)O)O[C@@H](n2cc(C)c(=O)[nH]c2=O)C[C@@H]1O` [R^1=CH3], the “addition … to the primer” value on Klenow, at T7 sequenase version 2, with AMV RT, on M-MuLV RT and on HIV-1RT was “++” throughout. For the same compound, the “elongation after addition of modified nucleotide” value at HIV-1RT is reported as “elongation”.
On to `Cc1cn([C@H]2C[C@H](O)[C@](COP(=O)(O)OP(=O)(O)OP(=O)(O)O)(C(=O)C(C)(C)C)O2)c(=O)[nH]c1=O` [R^1=t-butyl], for which the “addition … to the primer” value at Klenow, on T7 sequenase version 2, in the assay on AMV RT, on M-MuLV RT and on HIV-1RT was “-” in each case.
